In patent publication US20030143645A1, “Quinone reductase 2 and aldehyde dehydrogenase as therapeutic targets” (priority 2001, published 2003):
Where two headings read alike, the source gives them in different places.

Legend:
[1] = tested on: purine binding proteome (hALDH1 and hQR2); assay: ATP affinity array / ATP-Sepharose displacement elution of RBC purine binding proteome; design: species or system human; details: for proteins eluted from ATP affinity array (hALDH1 and hQR2): non-infected red cells, drug at [mM]; for proteins eluted from ATP-Sepharose (ALDH1 55 kDa, QR2 26 kDa): RBC extract, 5 mM drug (Example 2)
Experimental: ATP-affinity array chromatography. In whole mouse experiments, the animal (except for its tail, feet, skin and intestines) was frozen in liquid N2 and blended in buffer A containing 50 mM Hepes, pH 7.5, 50 mM NaCl, 10 mM MgCl2, 0.1% NONIDET- P40, 1 mM dithiothreitol, 1 μg/ml leupeptin, 100 μg/ml pefabloc and 10 μg/ml aprotinin. Mouse lysate was clarified by centrifugation for 1 hr at 100,000×g. For infected and non-infected RBC's˜1.5×10^9 cells were mixed with an equal volume of 2×buffer A, rocked for 30 min at 4° C., and clarified by centrifugation for 1 hr at 100,000×g. Supernatants were dialyzed overnight against 50 mM Hepes, pH 7.5, 50 mM NaCl, 10 mM MgCl2 and 1 mM dithiothreitol. […] Proteins were resolved by 12% SDS-PAGE and visualized by staining either with Coomassie brilliant Blue R-250 or silver nitrate. Alternatively, proteins were transferred to membrane GeneMate (Kaysville, Utah) in transfer buffer (25 mM Tris, 200 mM glycine, 20% methanol, and 0.01% SDS) for mixed peptide sequencing (Damer et al, J. Biol. Chem. 273:24396 (1998)). hALDH 1 and hQR2 purification and activity assays. Fresh human red blood cells (RBC) were obtained from Valley Biomedical, washed twice with PBS, and lysed in buffer B (0.1% Triton X, 50 mM Tris pH 7.5, 125 mM NaCl, 1 μg/mL aprotonin, 1 μg/mL pepstatin and 10 μg/mL PEFABLOC). Lysates were centrifuged twice at 125,000×g for 1 hr at 4° C. Cleared supernatant was filtered through a […] filter and loaded onto PQ-Sepharose. Pure hALDH was eluted with 5 mM NADH and pure hQR2 with 5 mM NMeN. The eluants were dialyzed overnight at 4° C. against 25 mM Tris pH 8.0 and 1 mM DTT. hALDHl was assayed as described in Table 2. Purified hQR2 was assayed at 22° C. in 100 μM N-methyldihydronicotinamide, 30 μM menadione, 0.1% Triton X-100, 50 mM Tris pH 8.5, 100 μM dicoumarol (unless stated otherwise). N-methyldihydronicotinamide was synthesized (Ortiz-Maldonado et al, Biochemistry 38(50):16636-16647 (1999)) and stored in 100 mM Tris-sulfate pH 8.0.
An ATP affinity array was charged with RBC and P. falciparum (blood stage) infected RBC extract.
chromatography. P. falciparum-infected or non-infected RBCs were lysed by mixing with an equal volume of 2×buffer A and rocking for 30 min at 4° C. 1×buffer A: 50 mM Hepes, pH 7.5, 50 mM NaCl, 10 mM MgCl2, 0.1% NONIDET-P40, 1 mM dithiothreitol, 1 μg/ml leupeptin, 100 μg/ml pefabloc and 1 μg/ml aprotinin. […] Proteins were resolved by 12% SDS-PAGE and visualized by staining with Coomassie brilliant blue R-250 or silver nitrate. Alternatively, proteins were transferred to PVM membrane (Kaysville, Utah) for mixed peptide sequencing (Damer et al, J. Biol. Chem. 273(38):24396-24405 (1998)).
To better understand the mechanism of the quinolines, an attempt was made to identify all quinoline interacting proteins in a cell or animal lysate. To achieve this, a functional proteomics approach was used as outlined in FIG. 7. In this strategy, three different, yet complementary approaches were conducted to identify and validate targets of the quinolines. In step one, termed displacement affinity chromatography, a specific sub-proteome from a cell is captured on an affinity matrix by virtue of its interaction with an immobilized ligand (FIG. 7, Step 1). The sup-proteome is captured after application of saturating amounts of cell lysate and extensive washing of the resin. The compounds of interest (in this case, the quinolines) are then applied to the matrix in parallel and allowed to interact with the bound proteome. […] In the second step, affinity matrices were created by directly linking the quinoline drugs to Sepharose, and after application of cell lysates, all proteins that specifically eluted from these matrices in the presence of drug were identified (FIG. 7 Step 2).

[2] = target: T1, QR2 (Homo sapiens, UniProt P16083); assay: hQR2 activity assay, enzyme purified from human RBC (Example 1); type: biochemical; design: Pure hALDH was eluted with 5 mM NADH and pure hQR2 with 5 mM NMeN; tissue Valley Biomedical (blood); host or cells: human red blood cells
T1 sequence (P16083 1-231): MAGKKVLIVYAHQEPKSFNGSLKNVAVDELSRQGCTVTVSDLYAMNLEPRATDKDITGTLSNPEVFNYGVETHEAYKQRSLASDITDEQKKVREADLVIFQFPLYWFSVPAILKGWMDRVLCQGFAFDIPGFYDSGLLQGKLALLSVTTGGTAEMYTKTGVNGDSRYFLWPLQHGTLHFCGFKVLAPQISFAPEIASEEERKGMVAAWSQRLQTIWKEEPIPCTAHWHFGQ
Experimental: ATP-affinity array chromatography. In whole mouse experiments, the animal (except for its tail, feet, skin and intestines) was frozen in liquid N2 and blended in buffer A containing 50 mM Hepes, pH 7.5, 50 mM NaCl, 10 mM MgCl2, 0.1% NONIDET- P40, 1 mM dithiothreitol, 1 μg/ml leupeptin, 100 μg/ml pefabloc and 10 μg/ml aprotinin. Mouse lysate was clarified by centrifugation for 1 hr at 100,000×g. For infected and non-infected RBC's˜1.5×10^9 cells were mixed with an equal volume of 2×buffer A, rocked for 30 min at 4° C., and clarified by centrifugation for 1 hr at 100,000×g. Supernatants were dialyzed overnight against 50 mM Hepes, pH 7.5, 50 mM NaCl, 10 mM MgCl2 and 1 mM dithiothreitol. […] Lysates were centrifuged twice at 125,000×g for 1 hr at 4° C. […] Pure hALDH was eluted with 5 mM NADH and pure hQR2 with 5 mM NMeN. The eluants were dialyzed overnight at 4° C. against 25 mM Tris pH 8.0 and 1 mM DTT. hALDHl was assayed as described in Table 2. Purified hQR2 was assayed at 22° C. in 100 μM N-methyldihydronicotinamide, 30 μM menadione, 0.1% Triton X-100, 50 mM Tris pH 8.5, 100 μM dicoumarol (unless stated otherwise).
For QR2 Kd apparent values determined using the expression [formula]
The Kd was determined as [formula]
Where Ao=rate in the absence of drug; Aapp=rate+drug; [M]=concentration of menadione.

[3] = tested on: Plasmodium falciparum strain 3D7; assay: P. falciparum growth by (3H)hypoxanthine uptake; type: cell-based; details: in vitro
Experimental: Plasmodium cultures. Plasmodium falciparum strain 3D7 was obtained from the MR4/ATCC and grown according to the included specifications. Parasites were harvested by saponin lysis as previously described (Schlichtherle et al (eds) Methods in Malaria Research 77(MR4/ATCC, Manasas, Va. 2000). P. falciparum growth was measured by (^3H)hypoxanthine uptake as previously described (Schlichtherle et al (eds) Methods in Malaria Research 77(MR4/ATCC, Manasas, Va. 2000).
To determine the contribution of QR2 or ALDH1 inhibition to the antimalarial properties of the quinolines, known inhibitors of QR2 or ALDH1 were added to P. falciparum and its growth was measured. Known inhibitors of P. falciparum growth all had IC50 values in agreement with the literature (FIG. 12A). […] The explanation for this finding is likely to be related to the abilities of the drugs to penetrate the plasma membrane or their ability to become concentrated within P. falciparum infected RBCs.

[4] = tested on: malaria infection; assay: cell-based assays of infection
[5] = target: T1, QR2; assay: QR2 activity assay with recombinant QR2 (Example 2); type: biochemical; design: GST (N, cleaved yes); made in house; E. coli only by inference
Experimental: Cloning of human QR2. Human QR2 was PCR amplified from human liver cDNA (Clontech) with the following primers: 5′[…]-3′ and 5′-[…]-3′ and cloned into the pGEX-4T-2 GST expression vector (Pharmacia). GST-tagged QR2 was purified and the GST tag removed according to the manufacturers instructions.
(§1) ALDH1, QR2 and QR1 activity assays. […] Reaction products were separated with a gradient of acetonitrile in 10 mM triethylamine acetic acid. […] QR1 IC50 values were calculated using GraphPad Prism.

[6] = target: QR1 (Oryctolagus cuniculus, UniProt U3KNP2); assay: QR1 activity assay (Example 2); type: biochemical, rabbit; design: QR1 was purified from rabbit liver as previously described; from tissue; host or cells: rabbit liver
Experimental: Purification of native ALDH1, QR2 and QR1. RBC extract was prepared as described above and applied to PQ-Sepharose equilibrated in buffer A. ALDH1 and QR2 were obtained by eluting the column with 5 mM b-NAD^+ and NMeH respectively.
as §1

[7] = substrate: CC1=CC(=O)c2ccccc2C1=O; assay: hQR2 activity assay, enzyme purified from human RBC (Example 1); type: biochemical; details: 22.0 °C
[8] = recombinant QR2, 50 μM NMeH, 5-30 μM menadione, read-out: QR2 K1 (μM) ± SEM
[9] = QR1 purified from rabbit liver, read-out: QR1 IC50 (μM) ± SEM

Sequence of QR1 (U3KNP2 1-274): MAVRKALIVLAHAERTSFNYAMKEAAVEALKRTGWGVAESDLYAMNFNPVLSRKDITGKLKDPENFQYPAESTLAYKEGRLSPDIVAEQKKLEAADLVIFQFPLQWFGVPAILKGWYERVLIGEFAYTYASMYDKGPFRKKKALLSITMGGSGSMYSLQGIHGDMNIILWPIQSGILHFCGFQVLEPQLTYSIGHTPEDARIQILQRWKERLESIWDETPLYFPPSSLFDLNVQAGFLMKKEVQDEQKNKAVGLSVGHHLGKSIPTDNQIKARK

Question: With `Cc1cc(N)c2ccccc2n1` [4AQ, 4 amino quinaldine] as the molecule, how does the “proteins eluted from ATP affinity array (hALDH1 and hQR2)” value (from here on “proteins eluted from ATP affinity array”) [1] read?
Answer: selectively eluted two proteins

Question: What about the Kd ([2]; purified hQR2 from human RBC, menadione substrate, read-out: Kd(app)) of the same molecule?
Answer: 0.81 µM

Question: How did the IC50 [3] turn out when `CCN(CC)c1ccc(C=O)cc1` [DEAB, diethylaminobenzaldehyde] was run?
Answer: 277 µM

Question: And the “antimalarial activity” value [4]?
Answer: have antimalarial activity

Question: `OC(c1cc(C(F)(F)F)nc2c(C(F)(F)F)cccc12)C1CCCCN1` (stereo not shown) [MQ, mefloquine] was tested. Which “inhibition of QR2 activity” value [5] did it give?
Answer: less potent inhibitors

Question: What about the Ki [5, 8] of the same molecule?
Answer: 17 ± 4 µM

Question: And the “proteins eluted from ATP-Sepharose (ALDH1 55 kDa, QR2 26 kDa)” value [1]?
Answer: selectively eluted proteins of 55 and 26 kDa

Question: What about the “proteins eluted from ATP affinity array” value [1] of the same molecule?
Answer: selectively eluted two proteins

Question: And the “effect on QR1 activity” value [6]?
Answer: weakly inhibited

Question: And the IC50 [6, 9]?
Answer: 616 ± 60 µM

Question: `COc1cc(NC(C)CCCN)c2ncccc2c1` (stereo not shown) [PQ, primaquine] was tested. Which Ki [5] did it give?
Answer: 1.04 ± 0.38 µM

Question: And the “inhibition of QR2 activity” value [5]?
Answer: potent inhibitors

Question: What about the “proteins eluted from ATP-Sepharose (ALDH1 55 kDa, QR2 26 kDa)” value [1] of the same molecule?
Answer: selectively eluted proteins of 55 and 26 kDa

Question: And the “proteins eluted from ATP affinity array” value [1]?
Answer: selectively eluted two proteins

Question: What about the Kd [2] of the same molecule?
Answer: 9.3 µM

Question: What about the IC50 [6] of the same molecule?
Answer: 124 ± 10 µM

Question: What about the “effect on QR1 activity” value [6] of the same molecule?
Answer: weakly inhibited

Question: Which results are given for `C=C[C@H]1C[N@@]2CC[C@H]1C[C@H]2[C@H](O)c1ccnc2ccc(OC)cc12` [Q, quinine]?
Answer: inhibition of QR2 activity [5]: less potent inhibitors; Ki [5, 8]: 252 ± 50 µM; IC50 [6, 9]: 9.6 ± 0.8 µM

Question: Which Ki [5] does the source give for `CCN(CC)CCCC(C)Nc1c2ccc(Cl)cc2nc2ccc(OC)cc12` (stereo not shown) [QC, Quinacrine] here?
Answer: 0.51 ± 0.11 µM

Question: And the “inhibition of QR2 activity” value [5]?
Answer: potent inhibitors

Question: What about the “effect on QR1 activity” value [6] of the same molecule?
Answer: not affected

Question: And the IC50 [6, 9]?
Answer: > 1000 µM

Question: With `O=c1cc(-c2ccccc2)oc2cc(O)cc(O)c12` [chrysin] as the molecule, how does the IC50 ([3]; Plasmodium falciparum) read?
Answer: 53.8 µM

Question: How did the “elution of hQR2, hALDH1 or any other protein from ATP affinity array” value ([1]; infected or non infected red cell extract) turn out when `Nc1ccc(S(=O)(=O)c2ccc(N)cc2)cc1` [dapsone] was run?
Answer: did not elute

Question: For `O=c1c(O)c(-c2ccc(O)c(O)c2)oc2cc(O)cc(O)c12` [quercetin], which IC50 ([3]; Plasmodium falciparum) is on record?
Answer: 81.8 µM

B1: hQR2 (Homo sapiens) (protein)
chain: T1 sequence (P16083 1-231)
notes: Pure hALDH was eluted with 5 mM NADH and pure hQR2 with 5 mM NMeN; tissue Valley Biomedical (blood); host or cells: human red blood cells
Question: For B1, which Km [7] is on record?
Answer: 14 µM
